The text below walks through data of US10414740B2, “Glutaminase inhibitors and method of use” (Agios Pharmaceuticals, Inc., priority 2012, dated 2019).

In general, IC50 refers to the point on the concentration scale where inhibition reaches its midpoint.

This test addresses T1, glutaminase (GAC) (Homo sapiens, UniProt O94925).
T1 sequence (O94925 55-598 isoform O94925-3 limits assumed): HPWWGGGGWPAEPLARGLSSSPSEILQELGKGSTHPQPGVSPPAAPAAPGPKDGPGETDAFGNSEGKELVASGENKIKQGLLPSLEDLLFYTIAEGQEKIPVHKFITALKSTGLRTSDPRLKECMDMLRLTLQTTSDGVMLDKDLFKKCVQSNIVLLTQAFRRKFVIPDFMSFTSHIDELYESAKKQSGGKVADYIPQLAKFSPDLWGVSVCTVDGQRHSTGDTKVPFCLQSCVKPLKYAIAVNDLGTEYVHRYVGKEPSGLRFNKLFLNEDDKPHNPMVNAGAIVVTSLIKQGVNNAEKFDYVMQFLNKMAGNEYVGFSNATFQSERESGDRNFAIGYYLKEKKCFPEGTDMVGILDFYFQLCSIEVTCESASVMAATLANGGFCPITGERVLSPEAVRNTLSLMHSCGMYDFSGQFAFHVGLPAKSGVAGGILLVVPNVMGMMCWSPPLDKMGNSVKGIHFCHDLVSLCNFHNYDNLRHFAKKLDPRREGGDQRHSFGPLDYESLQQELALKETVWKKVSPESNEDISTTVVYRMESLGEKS
Kind of test: glutaminase coupled endpoint assay (Example A). It is filed as biochemical. The note with it: inhibition of glutaminase; IC50 tested in an assay of Example A or Example B. In a few lines: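 Coupled endpoint read-out: glutamate from GAC is converted by excess GDH, and diaphorase recycles NADH to NAD while reducing resazurin to fluorescent resorufin, so loss of signal means inhibition. Compound in DMSO is preincubated with enzyme for 60 min at room temperature before substrate is added. Hits are counterscreened against GDH/diaphorase alone.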
In turn, `CC(=O)Nc1nnc(CCCCc2nnc(NC(=O)c3ccc4[nH]c(C)nc4c3)s2)s1` [Compound 128, N-(5-(4-(5-acetamido-1,3,4-thiadiazol-2-yl)butyl)-1,3,4-thiadiazol-2-yl)-2-methyl-1H-benzo[d]imidazole-5-carboxamide] displayed an IC50 of less than 100 nM.
In the case of `COc1ccc2[nH]cc(CC(=O)Nc3nnc(CCCCc4nnc(NC(C)=O)s4)s3)c2c1` [Compound 129] it was less than 100 nM; in that of `Cn1cc(CC(=O)Nc2nnc(CCCCc3nnc(NC(=O)Cc4cn(C)c5ccccc45)s3)s2)c2ccccc21` [Compound 130, N,N′-(5,5′-(butane-1,4-diyl)bis(1,3,4-thiadiazole-5,2-diyl))bis(2-(1-methyl-1H-indol-3-yl)acetamide)], less than 100 nM; in that of `COc1ccccc1CC(=O)Nc1nnc(CCCCc2nnc(NC(=O)Cc3ccccc3OC)s2)s1` [Compound 132, N,N′-(5,5′-(butane-1,4-diyl)bis(1,3,4-thiadiazole-5,2-diyl))bis(2-(2-methoxyphenyl)acetamide)], less than 100 nM.
